Literature values in patent US10202620B2, “Synthesis of olefinic alcohols via enzymatic terminal hydroxylation” (PROVIVI, INC., priority 2014, dated 2019).

Assays:
CYP52A4 = molecular target: T1, CYP52A4 (Candida maltosa, UniProt P16141); details: terminal hydroxylation, by alkane/FA chain length
T1 sequence (P16141 1-538): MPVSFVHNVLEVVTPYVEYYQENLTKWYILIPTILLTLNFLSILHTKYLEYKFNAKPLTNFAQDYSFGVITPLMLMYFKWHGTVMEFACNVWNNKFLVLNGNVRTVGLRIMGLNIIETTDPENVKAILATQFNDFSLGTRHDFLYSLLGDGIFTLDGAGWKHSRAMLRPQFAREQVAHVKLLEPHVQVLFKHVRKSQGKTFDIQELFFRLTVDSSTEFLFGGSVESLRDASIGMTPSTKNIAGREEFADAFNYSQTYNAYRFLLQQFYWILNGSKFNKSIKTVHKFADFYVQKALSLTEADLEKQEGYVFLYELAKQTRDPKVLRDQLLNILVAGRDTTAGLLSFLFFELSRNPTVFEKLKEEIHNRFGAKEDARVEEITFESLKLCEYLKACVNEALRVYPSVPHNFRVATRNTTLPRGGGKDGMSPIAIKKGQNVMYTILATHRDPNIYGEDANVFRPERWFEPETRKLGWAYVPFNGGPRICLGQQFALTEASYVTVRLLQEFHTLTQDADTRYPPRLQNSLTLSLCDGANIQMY

CYP52A3 = details: terminal hydroxylation, by alkane/FA chain length
alkB2 Gordonia sp TF6 = details: terminal hydroxylation, by alkane/FA chain length; 100% relative activity obtained with hexane
AlkB P. putida GPo1 = molecular target: T2, AlkB P. putida GPo1 (Ectopseudomonas oleovorans, UniProt P12691); details: terminal hydroxylation, by alkane/FA chain length
T2 sequence (P12691 1-401): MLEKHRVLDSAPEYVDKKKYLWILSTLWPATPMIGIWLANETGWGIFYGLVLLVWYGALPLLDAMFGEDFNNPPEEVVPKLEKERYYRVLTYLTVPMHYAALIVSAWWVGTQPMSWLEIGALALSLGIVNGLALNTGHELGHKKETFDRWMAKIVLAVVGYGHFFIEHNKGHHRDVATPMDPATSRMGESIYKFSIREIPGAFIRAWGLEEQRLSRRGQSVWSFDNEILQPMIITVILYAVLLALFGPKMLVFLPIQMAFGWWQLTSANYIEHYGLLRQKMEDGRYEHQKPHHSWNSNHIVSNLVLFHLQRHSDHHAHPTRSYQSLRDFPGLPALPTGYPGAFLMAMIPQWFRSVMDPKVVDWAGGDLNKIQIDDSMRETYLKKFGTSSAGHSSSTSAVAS

CYP153A16 = details: terminal hydroxylation, by alkane/FA chain length
CYP153A P. sp. = details: terminal hydroxylation, by alkane/FA chain length
LadA = molecular target: T3, LadA (Geobacillus thermodenitrificans, UniProt A4IU28); details: terminal hydroxylation, by alkane/FA chain length
T3 sequence (A4IU28 1-440): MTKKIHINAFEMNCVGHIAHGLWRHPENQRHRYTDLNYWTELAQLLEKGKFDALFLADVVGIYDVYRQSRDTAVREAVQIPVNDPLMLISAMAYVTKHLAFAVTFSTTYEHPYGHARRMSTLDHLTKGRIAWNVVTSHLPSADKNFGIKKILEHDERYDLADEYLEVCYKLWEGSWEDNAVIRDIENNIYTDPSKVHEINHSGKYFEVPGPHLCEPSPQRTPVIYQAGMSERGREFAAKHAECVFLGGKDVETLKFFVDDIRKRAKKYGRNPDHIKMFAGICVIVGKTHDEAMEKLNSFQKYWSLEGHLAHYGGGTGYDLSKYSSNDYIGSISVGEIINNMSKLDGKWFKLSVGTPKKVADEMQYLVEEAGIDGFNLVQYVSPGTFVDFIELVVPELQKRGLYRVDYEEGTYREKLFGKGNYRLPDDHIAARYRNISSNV

SMILES	Relative activity CYP52A4 (Scheller et al., 1996, Arch. Biochem Biophys. 328: 245-254) (CYP52A4)	Relative activity CYP52A3 (Scheller et al., 1996, Arch. Biochem Biophys. 328: 245-254) (CYP52A3)	Relative activity alkB2 Gordonia sp TF6* (Fujii et al., 2004, Biosci. Biotechnol. Biochem. 68: 2171-2177) (alkB2 Gordonia sp TF6)	Relative activity AlkB P. putida GPo1 (Vanbeilen et al., 1994, Enzyme Microb. Technol. 16: 904-911) (AlkB P. putida GPo1)	Relative activity CYP153A6 (Funhoff et al., 2006, J. Bacteriol. 188: 5220-5227) (CYP153A6)	Relative activity CYP153A16 (Scheps et al., 2011, Org. Biomol. Chem. 9: 6727-6733) (CYP153A16)	Relative activity CYP153A P. sp. (Scheps et al., 2011, Org. Biomol. Chem. 9: 6727-6733) (CYP153A P. sp.)	Relative activity LadA (Feng et al., 2007, Proc. Natl. Acad. Sci. U.S.A. 104: 5602-5607) (LadA)	also measured
CCCCCCCCCCCCCCCC(=O)O [C16 FA]	18	35	–	–	–	–	–	–	Relative activity CYP52A21 (Kim et al., 2007, Arch. Biochem. Biophys. 464: 213-220) (CYP52A21): 29
CCCCCCCCCCCCCCCCCC(=O)O [C18 FA]	1	30	–	–	–	–	–	–	–
CCCCCCCC [Strain C8]	–	–	72%	95	100	100	100	–	–
CCCCCCCCC [Strain C9]	–	–	63%	100	82	29	69	–	–
CCCCCCCCCC [Strain C10]	–	–	66%	60	23	13	60	–	–
CCCCCCCCCCC [Strain C11]	–	–	48%	6	1	<8	<6	–	–
CCCCCCCCCCCC [Strain C12]	37	41	34%	–	–	–	–	–	–
CCCCCCCCCCCCCCC [Strain C15]	–	–	–	–	–	–	–	83	–
CCCCCCCCCCCCCCCC [Strain C16]	33	100	–	–	–	–	–	100	–
CCCCCCCCCCCCCCCCCC [Strain C18]	20	48	–	–	–	–	–	78	–
CCCCCCCCCCCCCCCCCCCCCC [Strain C22]	–	–	–	–	–	–	–	74	–
CCCCCCCCCCCCCCCCCCCCCCCC [Strain C24]	–	–	–	–	–	–	–	65	–
